Data: article PMC6222820, “Synthesis of New Triarylpyrazole Derivatives Possessing Terminal Sulfonamide Moiety and Their Inhibitory Effects on PGE2 and Nitric Oxide Productions in Lipopolysaccharide-Induced RAW 264.7 Macrophages” (Molecules : A Journal of Synthetic Chemistry and Natural …, 2018)
Where two headings read alike, the source gives them in different places.

How the values were obtained:
[1] = tested on: LPS-induced RAW 264.7 macrophages; assay: Nitric oxide (NO) production inhibition in LPS-induced RAW 264.7 macrophages (nitrite determination); type: cell-based; conditions: for inhibition at 1 µM: RAW264.7, 1 µM; for inhibition at 5 µM: RAW264.7, 5 µM; for inhibition at 10 µM: RAW264.7, 10 µM
Experimental: The ability of a certain molecule to inhibit the production of inflammatory mediator(s) is one of successful approach to treatment both chronic and acute inflammation.
(§1) Cell culture and sample treatment were performed as reported in the literature. The 3-(4,5-dimethylthiazol-2-yl)-2,5-diphenyltetrazolium bromide (MTT) assay for cell viability followed the procedure previously described in the literature. Nitrite determination was carried as described in the literature, and the PGE2 assay was carried as previously described.

[2] = MTT assay for cell viability / cytotoxicity; type: cell-based; conditions: mouse, RAW 264.7 macrophages, means ± SD of three independent experiments
Experimental: In addition to NO inhibition, the cytotoxic activity of compounds 1a–i, 2a–i, 3a–h, and 4a–h in RAW 264.7 macrophages were measured using the 3-(4,5-dimethylthiazol-2-yl)-2,5-diphenyltetrazolium bromide (MTT) assay to check whether the effects on the production of NO was caused by nonspecific cytotoxicity.
as §1

[3] = Mus musculus, LPS-induced RAW 264.7 macrophages
[4] = Mus musculus, RAW264.7, nitric oxide production, means ± SD of three independent experiments, read-out: NO (IC50)

IC50 [1, 4] [µM] | melting point [°C] | IC50 ([1]; Mus musculus, RAW264.7, read-out: NO (IC50)) [µM] | SMILES | inhibition at 1 µM [1, 3] [%] | inhibition at 5 µM [1, 3] [%] | inhibition at 10 µM [1, 3] [%] | IC50 [2] [µM] | Nitric Oxide % Inhibition ([1]; 10 µM, LPS-induced RAW 264.7 macrophages) [%] | inhibition at 40 µM ([1]; Mus musculus, RAW264.7, read-out: Nitric Oxide % Inhibition) [%]
9.17 ± 0.52 | 104 to 106 | – | COc1cccc(-c2nn(-c3ccccc3)cc2-c2ccnc(NCCNS(=O)(=O)c3ccccc3)c2)c1 [Compound 1a, N-(2-((4-(3-(3-Methoxyphenyl)-1-phenyl-1H-pyrazol-4-yl)pyridin-2-yl)amino)ethyl)benzenesulfonamide] | 17.35 ± 0.09 | 35.4 ± 1.14 | 52.9 ± 3.12 | 245.8 ± 1.91 | – | –
10.1 ± 0.63 | 132 to 134 | – | COc1cccc(-c2nn(-c3ccccc3)cc2-c2ccnc(NCCNS(=O)(=O)c3ccc(Cl)cc3)c2)c1 [Compound 1c, 4-Chloro-N-(2-((4-(3-(3-methoxyphenyl)-1-phenyl-1H-pyrazol-4-yl)pyridin-2-yl)amino)ethyl)benzenesulfonamide] | 13.27 ± 0.08 | 24.76 ± 0.17 | 49.9 ± 1.25 | 219.39 ± 0.14 | – | –
13.4 ± 0.72 | 144 to 146 | – | COc1ccc(S(=O)(=O)NCCNc2cc(-c3cn(-c4ccccc4)nc3-c3cccc(OC)c3)ccn2)cc1 [Compound 1e, 4-Methoxy-N-(2-((4-(3-(3-methoxyphenyl)-1-phenyl-1H-pyrazol-4-yl)pyridin-2-yl)amino)ethyl)benzenesulfonamide] | 13.52 ± 0.11 | 16.1 ± 0.09 | 41.5 ± 0.99 | 285 ± 4.18 | – | –
12.6 ± 0.29 | 118 to 120 | – | COc1cccc(-c2nn(-c3ccccc3)cc2-c2ccnc(NCCNS(=O)(=O)c3cccc(F)c3)c2)c1 [Compound 1h, 3-Fluoro-N-(2-((4-(3-(3-methoxyphenyl)-1-phenyl-1H-pyrazol-4-yl)pyridin-2-yl)amino)ethyl)benzenesulfonamide] | 11.12 ± 0.02 | 26.2 ± 0.99 | 41.2 ± 2.15 | 244.2 ± 2.23 | – | –
– | 178 to 180 | – | COc1cccc(-c2nn(-c3ccccc3)cc2-c2ccnc(NCCNS(=O)(=O)c3cccc4ccccc34)c2)c1 [Compound 1i, N-(2-((4-(3-(3-Methoxyphenyl)-1-phenyl-1H-pyrazol-4-yl)pyridin-2-yl)amino)ethyl)naphthalene-1-sulfonamide] | – | – | – | – | – | –
9.5 ± 0.34 | 117 to 119 | – | COc1cccc(-c2nn(-c3ccccc3)cc2-c2ccnc(NCCCNS(=O)(=O)c3ccc(Br)cc3)c2)c1 [Compound 2b, 4-Bromo-N-(3-((4-(3-(3-methoxyphenyl)-1-phenyl-1H-pyrazol-4-yl)pyridin-2-yl)amino)propyl)benzenesulfonamide] | 0.01 ± 0.03 | 28.1 ± 0.66 | 52.4 ± 1.62 | 384.7 ± 1.29 | – | –
12.4 ± 0.4 | 92 to 94 | – | COc1cccc(-c2nn(-c3ccccc3)cc2-c2ccnc(NCCCNS(=O)(=O)c3ccc(F)cc3)c2)c1 [Compound 2d, 4-Fluoro-N-(3-((4-(3-(3-methoxyphenyl)-1-phenyl-1H-pyrazol-4-yl)pyridin-2-yl)amino)propyl)benzenesulfonamide] | 7.81 ± 0.03 | 23 ± 0.89 | 55 ± 4.01 | 260.3 ± 2.24 | – | –
9.96 ± 0.18 | 124 to 126 | – | COc1ccc(S(=O)(=O)NCCCNc2cc(-c3cn(-c4ccccc4)nc3-c3cccc(OC)c3)ccn2)cc1 [Compound 2e, 4-Methoxy-N-(3-((4-(3-(3-methoxyphenyl)-1-phenyl-1H-pyrazol-4-yl)pyridin-2-yl)amino)propyl)benzenesulfonamide] | 2.02 ± 0.01 | 23.9 ± 1.12 | 50.2 ± 1.88 | > 400 | – | –
9.16 ± 0.27 | 94 to 96 | – | COc1cccc(-c2nn(-c3ccccc3)cc2-c2ccnc(NCCCNS(=O)(=O)c3ccc(C)cc3)c2)c1 [Compound 2f, N-(3-((4-(3-(3-Methoxyphenyl)-1-phenyl-1H-pyrazol-4-yl)pyridin-2-yl)amino)propyl)-4-methylbenzenesulfonamide] | 4.36 ± 0.04 | 19.8 ± 0.96 | 46.3 ± 3.21 | 323 ± 3.35 | – | –
10.5 ± 0.44 | – | – | COc1cccc(-c2nn(-c3ccccc3)cc2-c2ccnc(NCCCNS(=O)(=O)c3ccc(C(F)(F)F)cc3)c2)c1 [Compound 2g, N-(3-((4-(3-(3-Methoxyphenyl)-1-phenyl-1H-pyrazol-4-yl)pyridin-2-yl)amino)propyl)-4-(trifluoromethyl)benzenesulfonamide] | 2.91 ± 0.02 | 26.3 ± 1.01 | 56 ± 0.89 | 252.6 ± 1.87 | – | –
9.19 ± 0.25 | – | – | COc1cccc(-c2nn(-c3ccccc3)cc2-c2ccnc(NCCCNS(=O)(=O)c3cccc(F)c3)c2)c1 [Compound 2h, 3-Fluoro-N-(3-((4-(3-(3-methoxyphenyl)-1-phenyl-1H-pyrazol-4-yl)pyridin-2-yl)amino)propyl)benzenesulfonamide] | 4.87 ± 0.05 | 24.1 ± 0.91 | 41.5 ± 1.12 | 246 ± 2.71 | – | –
– | 134 to 136 | – | COc1cccc(-c2nn(-c3ccccc3)cc2-c2ccnc(NCCCNS(=O)(=O)c3cccc4ccccc34)c2)c1 [Compound 2i, N-(3-((4-(3-(3-Methoxyphenyl)-1-phenyl-1H-pyrazol-4-yl)pyridin-2-yl)amino)propyl)naphthalene-1-sulfonamide] | – | – | – | – | – | –
10.3 ± 0.23 | 100 to 102 | – | O=S(=O)(NCCNc1cc(-c2cn(-c3ccccc3)nc2-c2cccc(O)c2)ccn1)c1ccccc1 [Compound 3a, N-(2-((4-(3-(3-Hydroxyphenyl)-1-phenyl-1H-pyrazol-4-yl)pyridin-2-yl)amino)ethyl)benzenesulfonamide] | 4.78 ± 0.03 | 21.5 ± 0.37 | 49 ± 1.1 | 29.8 ± 1.91 | – | –
10.6 ± 0.51 | 178 to 180 | – | O=S(=O)(NCCNc1cc(-c2cn(-c3ccccc3)nc2-c2cccc(O)c2)ccn1)c1ccc(Br)cc1 [Compound 3b, 4-Bromo-N-(2-((4-(3-(3-hydroxyphenyl)-1-phenyl-1H-pyrazol-4-yl)pyridin-2-yl)amino)ethyl)benzenesulfonamide] | 15.8 ± 0.16 | 24.4 ± 0.52 | 48.7 ± 1.74 | 24.3 ± 0.41 | – | –
15.2 ± 0.17 | 100 to 102 | – | O=S(=O)(NCCNc1cc(-c2cn(-c3ccccc3)nc2-c2cccc(O)c2)ccn1)c1ccc(Cl)cc1 [Compound 3c, 4-Chloro-N-(2-((4-(3-(3-hydroxyphenyl)-1-phenyl-1H-pyrazol-4-yl)pyridin-2-yl)amino)ethyl)benzenesulfonamide] | 6.34 ± 0.06 | 11.7 ± 0.71 | 33.8 ± 0.89 | 22.7 ± 0.3 | – | –
22.2 ± 0.31 | – | – | O=S(=O)(NCCNc1cc(-c2cn(-c3ccccc3)nc2-c2cccc(O)c2)ccn1)c1ccc(C(F)(F)F)cc1 [Compound 3f, N-(2-((4-(3-(3-Hydroxyphenyl)-1-phenyl-1H-pyrazol-4-yl)pyridin-2-yl)amino)ethyl)-4-(trifluoromethyl)benzenesulfonamide] | 6.08 ± 0.07 | 15.2 ± 0.91 | 36.5 ± 0.59 | – | – | –
– | 146 to 148 | – | O=S(=O)(NCCNc1cc(-c2cn(-c3ccccc3)nc2-c2cccc(O)c2)ccn1)c1cccc2ccccc12 [Compound 3h, N-(2-((4-(3-(3-Hydroxyphenyl)-1-phenyl-1H-pyrazol-4-yl)pyridin-2-yl)amino)ethyl)naphthalene-1-sulfonamide] | – | – | – | – | – | –
8.34 ± 0.11 | – | – | O=S(=O)(NCCCNc1cc(-c2cn(-c3ccccc3)nc2-c2cccc(O)c2)ccn1)c1ccc(Br)cc1 [Compound 4b, 4-Bromo-N-(3-((4-(3-(3-hydroxyphenyl)-1-phenyl-1H-pyrazol-4-yl)pyridin-2-yl)amino)propyl)benzenesulfonamide] | 8.19 ± 0.06 | 22.2 ± 0.72 | 63.9 | 19.5 ± 0.49 | 63.82 ± 2.14 | –
11.3 ± 0.16 | – | – | O=S(=O)(NCCCNc1cc(-c2cn(-c3ccccc3)nc2-c2cccc(O)c2)ccn1)c1ccc(F)cc1 [Compound 4d, 4-Fluoro-N-(3-((4-(3-(3-hydroxyphenyl)-1-phenyl-1H-pyrazol-4-yl)pyridin-2-yl)amino)propyl)benzenesulfonamide] | 9.02 ± 0.03 | 20.8 ± 0.36 | 48.5 ± 1.79 | 12.6 ± 0.22 | – | –
9.45 ± 0.15 | – | – | O=S(=O)(NCCCNc1cc(-c2cn(-c3ccccc3)nc2-c2cccc(O)c2)ccn1)c1ccc(C(F)(F)F)cc1 [Compound 4f, N-(3-((4-(3-(3-Hydroxyphenyl)-1-phenyl-1H-pyrazol-4-yl)pyridin-2-yl)amino)propyl)-4-(trifluoromethyl)benzenesulfonamide] | 4.87 ± 0.14 | 18.9 ± 1.02 | 53.8 ± 1.87 | 17.7 ± 0.61 | – | –
– | – | 29.32 ± 0.15 | CC(=N)NCCCC[C@H](N)C(=O)O [L-NIL, N^6-(1-Iminoethyl)-L-lysine, reference compound] | – | – | – | – | – | 77.9 ± 4.25
